What was measured:
human VR1 [1] = molecular target: T1, human VR1 (Homo sapiens, UniProt Q8NER1); assay: VR1 capsaicin-based assay in HEK293-EcR cells (FLIPR, Fluo-4); type: cell-based
T1 construct: expressed in transfected cells
Description: Human VR1 cloning. Human spinal cord RNA (commercially available from Clontech, Palo Alto, Calif.) was used. Reverse transcription was conducted on 1.0 μg total RNA using Thermoscript Reverse Transcriptase (commercially available from Invitrogen, Carlsbad, Calif.) and oligo dT primers as detailed in its product description. Reverse transcription reactions were incubated at 55° C. for 1 h, heat-inactivated at 85° C. for 5 min, and RNase H-treated at 37° C. for 20 min. Human VR1 cDNA sequence was obtained by comparison of the human genomic sequence, prior to annotation, to the published rat sequence. Intron sequences were removed and flanking exonic sequences were joined to generate the hypothetical human cDNA. […] On the day of assay, cells were loaded with Fluo-4 (a calcium-sensitive dye that is commercially available from Molecular Probes, Eugene, Oreg.) and CAP-mediated calcium influx was measured using a Fluorometric Imaging Plate Reader (“FLIPR”) (commercially available from Molecular Devices Corp., Sunnyvale, Calif.) as described below. […]

human VR1 [2] = molecular target: T1, human VR1; assay: VR1 pH-based assay in HEK293-EcR cells (FLIPR, Fluo-4); type: cell-based; settings: activation by agonist buffer giving pH 5.5, human VR1 in PonA-induced HEK293-EcR cells, 50 pM to 3 μM, n+3
Description: Human VR1 cloning. Human spinal cord RNA (commercially available from Clontech, Palo Alto, Calif.) was used. Reverse transcription was conducted on 1.0 μg total RNA using Thermoscript Reverse Transcriptase (commercially available from Invitrogen, Carlsbad, Calif.) and oligo dT primers as detailed in its product description. Reverse transcription reactions were incubated at 55° C. for 1 h, heat-inactivated at 85° C. for 5 min, and RNase H-treated at 37° C. for 20 min. Human VR1 cDNA sequence was obtained by comparison of the human genomic sequence, prior to annotation, to the published rat sequence. Intron sequences were removed and flanking exonic sequences were joined to generate the hypothetical human cDNA. Primers flanking the coding region of human VR1 were designed as follows: forward primer, [NT]; and reverse primer, [NT] of VR1 was performed on one tenth of the Reverse transcription reaction mixture using Expand Long Template Polymerase and Expand Buffer 2 in a final volume of 50 μL according to the manufacturer's instructions (Roche Applied Sciences, Indianapolis, Ind.). After denaturation at 94° C. for 2 min PCR amplification was performed for 25 cycles at 94° C. for 15 sec, 58° C. for 30 sec, and 68° C. for 3 min followed by a final incubation at 72° C. for 7 min to complete the amplification. […]

T1 sequence (Q8NER1 whole entry): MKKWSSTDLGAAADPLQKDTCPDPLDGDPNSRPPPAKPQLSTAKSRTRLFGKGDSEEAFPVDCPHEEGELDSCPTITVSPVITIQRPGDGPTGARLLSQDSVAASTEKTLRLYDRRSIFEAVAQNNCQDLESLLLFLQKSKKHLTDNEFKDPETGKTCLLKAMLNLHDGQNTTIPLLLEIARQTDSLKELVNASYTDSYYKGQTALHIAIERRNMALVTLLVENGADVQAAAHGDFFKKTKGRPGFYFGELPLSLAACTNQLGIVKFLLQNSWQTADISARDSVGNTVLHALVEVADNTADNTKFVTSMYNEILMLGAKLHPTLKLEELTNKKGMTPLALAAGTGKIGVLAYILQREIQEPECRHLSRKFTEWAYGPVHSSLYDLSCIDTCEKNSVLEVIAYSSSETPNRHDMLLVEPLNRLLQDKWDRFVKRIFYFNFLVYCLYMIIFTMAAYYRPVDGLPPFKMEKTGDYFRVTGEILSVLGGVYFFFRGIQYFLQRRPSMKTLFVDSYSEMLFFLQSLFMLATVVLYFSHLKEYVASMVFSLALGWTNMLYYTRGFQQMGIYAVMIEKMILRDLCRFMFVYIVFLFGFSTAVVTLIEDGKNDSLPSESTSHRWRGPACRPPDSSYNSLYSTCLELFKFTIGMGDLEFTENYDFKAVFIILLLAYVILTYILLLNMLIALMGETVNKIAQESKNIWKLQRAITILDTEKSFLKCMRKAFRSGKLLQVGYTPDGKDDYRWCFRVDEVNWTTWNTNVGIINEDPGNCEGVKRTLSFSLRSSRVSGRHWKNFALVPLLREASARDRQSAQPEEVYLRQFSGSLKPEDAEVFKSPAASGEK

C[C@@H]1CN(c2ncccc2Cl)CCN1/C(=N\C#N)NCCC1=CCCCC1 [Compound DEY]
IC50 (human VR1 [1]; capsaicin-based assay, human VR1 activated by capsaicin (400 nM) in PonA-induced HEK293-EcR cells, 50 pM to 3 μM, n+3): 0.0594 ± 0.0131 µM | binding to and modulation of human VR1 (conclusion in words) (human VR1 [1]; conclusion from the pH-based assay and the capsaicin-based assay): binds to and modulates the activity of human VR1 | IC50 (human VR1 [2]): 0.197 ± 0.0398 µM
